Source: the METLIN SMRT retention time set (Domingo-Almenara et al. 2019)

Test: gradient 5% acetonitrile 3 min, to 50% in 2 min, to 85% in 15 min, held 3 min, 100 µL/min
Conditions: column: Zorbax Extend-C18 2.1 x 50 mm; eluents: water / acetonitrile, 0.1% formic acid
Procedure, shortened: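 Mixtures of ~100 pure standards were chromatographed on a Zorbax Extend-C18 column (2.1 × 50 mm, 1.8 μm) at 100 μL/min using water and acetonitrile, each with 0.1% formic acid. Detection used a quadrupole time-of-flight mass spectrometer in positive and negative ionization mode, and data collection spanned 3 months. Retention time was obtained from adduct peaks picked computationally and each checked manually.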

| SMILES | RP-LC retention time [s] |
| --- | --- |
| CC1Oc2ccc(-c3csc(NC(=O)c4cccc(Br)c4)n3)cc2NC1=O (centres undefined) | 995 |
| Cc1ccc(Cl)cc1NC(=O)CN(C)S(=O)(=O)c1c[nH]c(C(=O)N2CCCC2)c1 | 818 |
| CCN(CC)CCNC(=O)Cn1nc(-c2ccc(Cl)cc2)ccc1=O | 624 |
| CCn1c(=O)c(N2CCN(C(=O)NCc3ccccc3)CC2)nc2ccccc21 | 820 |
| CCC(=O)Nc1nc(-c2ccc3c(c2)N(CC)C(=O)CO3)c(C)s1 | 812 |
| O=C(CSc1cc(-n2ccc(C(=O)NC3CC3)n2)ncn1)Nc1ccc2c(c1)OCO2 | 714 |
| COc1ccc(-n2c(=O)n(C)c(=O)c3cc(C(=O)Nc4ccccc4OC)cnc32)cc1 | 892 |
| CN(C)C(CNC(=O)c1cc(=O)c2ccccc2o1)c1cn(C)c2ccccc12 (centres undefined) | 554 |
| O=C(NCCCN1CCCc2ccccc21)C1CCc2nc(N3CCCCC3)ncc2C1 (centres undefined) | 827 |
| Cc1cc(C)cc(NS(=O)(=O)c2cc3c(s2)CCN(C(=O)C2CCC2)C3)c1 | 962 |
| Cc1cc(=O)n(CC(=O)N2CCc3ccccc32)c(N2CCc3ccccc3C2)n1 | 825 |
| O=C(NCc1ccc(N2CCCCC2)cc1)C1CCN(c2nnc3ccccn23)CC1 | 545 |
| Cc1ccc(C(=O)N2CCN(c3cc(-c4cccs4)[nH]n3)CC2)cc1C | 808 |
| O=C(Cc1ccc(Cl)cc1)N1CCN(c2cc(-c3ccccc3)[nH]n2)CC1 | 841 |
| CC(C)Cn1c(=O)c2cc(C(=O)NCCCn3cccn3)nn2c2ccccc21 | 831 |
| O=C(CCc1c(-c2ccccc2)nc2ccccn12)Nc1ccc(F)cc1F | 666 |
| Cn1c(=O)oc2cc(-c3noc(-c4ccc(F)cc4)n3)ccc21 | 831 |
| COc1cccc(N2CCN(c3ccnc(SCC(=O)Nc4cc(F)ccc4Cl)n3)CC2)c1 | 836 |
| CCOc1ccccc1CNC(=O)c1c(C)sc2ccn(C)c(=O)c12 | 823 |
| COc1ccc(Cl)cc1C(=O)NC1CCN(c2cc(-c3cccs3)[nH]n2)CC1 | 865 |

| SMILES | RP-LC retention time [s] |
| --- | --- |
| CCN1C(=O)c2cccnc2Sc2cc(NC(=O)c3ccccn3)ccc21 | 802 |
| CN1C(=O)CCc2cc(NC(=O)Cc3ccsc3)ccc21 | 709 |
| CCCNC(=O)c1cc(C)nc2ccc(F)cc12 | 646 |
| Fc1ccccc1Cc1nc(-c2cccc(-c3ccn[nH]3)c2)no1 | 939 |
| CN(C)C[C@@H]1CN(Cc2cccnc2)C[C@H]1NC(=O)C1(c2ccccc2)CC1 | 557 |
| CCCCCOC(=O)CSc1nnc(-c2ccc(Cl)cc2Cl)o1 | 1320 |
| COc1cccc(NC(=O)N2CCc3c(c(-c4nnc(-c5ccc(F)cc5)o4)nn3C)C2)c1 | 833 |
| O=C(Cc1ccccc1Br)NCC(=O)N1CCCc2ccccc21 | 862 |
| CCOCCCNC(=O)N1CCCCCC1c1cccc(C)c1 (centres undefined) | 954 |
| CCC(C)NC(=O)N1CCN(Cc2nc3cccnc3n2-c2cccc(C)c2)CC1 (centres undefined) | 646 |
| Cc1ccc(N2CCC(NC(=O)NC(C)(C)C)C2=O)cc1C (centres undefined) | 803 |
| CCCOc1nc2ccccc2nc1N1CCCC(C(=O)Nc2ccc(F)c(Cl)c2)C1 (centres undefined) | 1130 |
| COc1ccc(Cl)cc1C(=O)CN1C(=O)COc2ccccc2C1=O | 988 |
| CNC(=O)[C@@H]1C[C@H](Oc2cccnc2)CN1C(=O)C1CC=CC1 | 554 |
| O=[N+]([O-])c1ccc(CSc2nnc(-c3ccncc3)n2-c2ccccc2)cc1 | 706 |
| CCOc1ccc(NC(=O)C2CCCN(c3ncnc4c3nc3n4CCCCC3)C2)cc1 (centres undefined) | 732 |
| O=C(NC1CCCCC1)C1CCCN(c2ncnc3c2oc2ccccc23)C1 (centres undefined) | 758 |
| COc1cc(NC(=O)COc2cc(C(F)(F)F)c3c(C)nn(C)c3n2)cc(OC)c1 | 1030 |
| CN[C@@H]1C[C@@H](c2ccc(Cl)c(Cl)c2)c2ccccc21 | 824 |
| O=C(c1ccc(F)cc1)N1CCC(n2c(-c3ccoc3)nc3cccnc32)C1 (centres undefined) | 712 |

| SMILES | RP-LC retention time [s] |
| --- | --- |
| Cc1cc(-c2cc(S(=O)(=O)NC3CCCCCC3)c(C)s2)n[nH]1 | 917 |
| Cc1ccc(-c2noc(CC(=O)NC(C)c3ccc(C)cc3C)n2)cc1 (centres undefined) | 1080 |
| CCNC(=O)Nc1ccc2c(c1)CN(CC1CCCCC1)CCO2 | 610 |
| CCOC(=O)c1noc2nc(C)nc(Nc3ccc(C)c(F)c3)c12 | 1230 |
| CC(=O)c1cn(CC(=O)NC(C)c2ccc3c(c2)OCCCO3)c2ccccc12 (centres undefined) | 794 |
| CSc1cccc(NC(=O)NCCNc2nc(C)cc(N(C)C)n2)c1 | 583 |
| NC(=O)C1CCN(C(=O)Cn2c(-c3cccs3)cc3ccccc32)CC1 | 744 |
| O=C(NCc1ccccc1)C1Oc2ccccc2NC1=O (centres undefined) | 701 |
| CC(C)Oc1ccc(CNC(=O)c2nnc(-c3ccc(S(=O)(=O)N4CCCC4)cc3)o2)cc1 | 1000 |
| Cc1ccc(F)c(-n2nnc(C(=O)O)c2-c2cccnc2)c1 | 642 |
| CCC(Oc1ccc(=O)n(-c2ccc(F)cc2)n1)C(=O)NCCCOC (centres undefined) | 677 |
| CCN1C(=O)C2CC3(CCN(Cc4cn(C)c5ccc(OC)cc45)CC3)CN2C1=O (centres undefined) | 584 |
| COCCCN1C(=O)CSc2c(c3ccccc3n2C)C1C(=O)NCc1ccc(F)cc1 (centres undefined) | 893 |
| CCCCn1cnc2c(nnn2C)c1=O | 621 |
| CCn1c(SC)nnc1-c1nn(C)c2c1CN(C(=O)c1ccc(F)cc1)CC2 | 763 |
| CCOC(=O)c1noc2ncnc(Nc3cccc(F)c3)c12 | 616 |
| CCCNC(=O)C1CCN(c2ccc(SCC(=O)Nc3ccc4c(c3)CCC4)nn2)CC1 | 707 |
| COc1ccc(OCc2nc(-c3cccc(-c4ccnn4C)c3)no2)cc1 | 1010 |
| Cc1oc(-c2ccc(Cl)cc2)nc1CN1CCCC(C(=O)N2CCN(C(=O)c3ccco3)CC2)C1 (centres undefined) | 679 |
| Cn1ccc(C(=O)Nc2sccc2C(N)=O)n1 | 623 |

Results, then the compound that gave them:

| RP-LC retention time [s] | SMILES |
| --- | --- |
| 1090 | CCn1cc(C(=O)Nc2ccccc2C)c(=O)c2ccc(C)nc21 |
| 779 | CC(=O)c1ccc(OC(=O)c2cc3c(C)nn(-c4cccc(F)c4)c3s2)cc1 |
| 732 | COc1ccc(CCNC(=O)Cn2c(=O)n(CC3CCCO3)c(=O)c3ccccc32)cc1OC (centres undefined) |
| 855 | CCn1c(=O)c2c(cc(C)n2C)n(CC(=O)Nc2ccc(C)c(F)c2)c1=O |
| 1170 | Cc1ccc(Cn2c(N3CCCC(C(=O)Nc4ccc(C)c(F)c4)C3)nc3ccsc3c2=O)cc1 (centres undefined) |
| 713 | CCOc1ccccc1N1CCN(C(=O)C2CCCN(c3nccc4sc(C)cc34)C2)CC1 (centres undefined) |
| 850 | O=C(c1nnn2c1COC(c1ccccc1)C2)N1CCN(C(=O)C2(c3ccccc3)CC2)CC1 (centres undefined) |
| 1100 | COc1cc(NC(=O)Cn2nc(N3CCCC(C)C3)c3ccccc3c2=O)cc(OC)c1 (centres undefined) |
| 881 | O=C(CC1CCCC1)NC(c1ccccc1)c1nnc(N2CCCCC2)o1 (centres undefined) |
| 818 | Oc1ccc(Nc2nc(-c3ccccc3)cs2)cc1 |
| 964 | COC(=O)c1cc(C)nc2c1c(=O)n(Cc1nc(-c3ccc(OC)c(OC)c3)oc1C)c(=O)n2C |
| 717 | O=C(Nc1ccc2c(c1)CN(C(=O)Nc1ccc3c(c1)OCCO3)CCO2)C1CC1 |
| 839 | CCOc1cc(C(=O)NC2CCN(c3cc(-c4cccs4)[nH]n3)C2)cc(OCC)c1OCC (centres undefined) |
| 1210 | Cc1ccc(-n2cc(C(=O)OCC(=O)OC(C)(C)C)c3ccccc3c2=O)cc1 |
| 919 | Cc1ccc(S(=O)(=O)N2CCOCC2)cc1-c1nnc(-c2ccccc2)o1 |
| 1020 | O=C(NC1CCCCCC1)C1CCN(c2nccnc2Oc2ccccc2)CC1 |
| 693 | COc1ccc(OC)c(-c2nnc(SCC(=O)Nc3nccs3)o2)c1 |
| 939 | O=C(CCC1CCCN(C(=O)Nc2ccc(Cl)cc2)C1)NCc1ccccc1Cl (centres undefined) |
| 941 | O=S(=O)(Cc1ccccc1)N1CCC(c2noc(COCC3CC3)n2)CC1 |
| 629 | CC(C)NC(=O)C1CCN(c2cnc(N3CCSCC3)nc2)CC1 |
| 1050 | CNC(=O)c1c(NC(=O)c2cccc(OC)c2)sc2c1CCC2 |
| 671 | CCc1ccc2c(c1)-c1ccccc1S(=O)(=O)N2CC(=O)NCCN1CCOCC1 |
| 1120 | CCCN1C(=O)c2cc(S(=O)(=O)Nc3cccc(Cl)c3)ccc2Oc2cccnc21 |
| 669 | Cc1ccn2c(NC(=O)Cc3ccccc3)c(-c3ccc(F)cc3)nc2c1 |
| 605 | CC(=O)N1CCC(C(=O)Nc2nnc(C3CC3)s2)CC1 |
| 633 | O=C(NC1CCS(=O)(=O)C1)C1CCN(C(=O)C2CC(=O)N(c3ccc(F)cc3)C2)CC1 (centres undefined) |
| 909 | CCN1C(=O)COc2ccc(-c3nc(NC(=O)C(C)C)sc3C)cc21 |
| 821 | Cc1cccc(-c2nnc(SCc3cc(=O)n4ccsc4n3)o2)c1 |
| 617 | CC(=O)Nc1ccc(CC(=O)N2C[C@@H]3CCN(S(C)(=O)=O)C[C@]3(CF)C2)cc1 |
